Measurements published in patent US9844565B2, “Systems and methods for treatment of acne vulgaris and other conditions with a topical nitric oxide delivery system” (priority 2012, dated 2017).

Assays:
[1] = tested on: micro-capillary blood flow to skin; experiment: Laser Doppler study with covered chamber in three human female subjects, 10,000 ppm NO (Example 5); assay type: in vivo; settings: applied to the skin at 1/10% in alcohol
Excerpt: While nitric oxide has many physiological effects, the purpose of these studies was to measure physiological effects that would be relatively easy to determine, and which would be noninvasive. […] Nitric oxide is capable of […] the capillary bed, and thus, laser Doppler was selected.
The formulation used in these studies contained nitric oxide dispersed in a lipid matrix. […] Nitric oxide is a very rapid acting molecule, and these studies used a system that employed laser Doppler with a covered chamber. The formulation was placed into the chamber and then attached to the skin by an adhesive layer on the covering. This provided a stable measuring device as determined by multiple normal evaluations of the capillary blood flow without treatment of nitric oxide.
A known positive control, methyl nicotinate, was applied to the skin at a concentration of 1/10% in alcohol. […] The vascular dynamics are such that when the blood vessels dilate physical parameters follow Bernoulli's law. […] The laser Doppler device accurately measured these parameters. […]
A Moor Instruments DRT4 Laser Doppler Blood Flow Monitor (Devon, England) was used in these studies. The laser Doppler technique measured blood flow in the microcapillaries of the skin that are close to the skin surface and the blood flow in underlying arterioles and venules that help to regulate skin temperature. […]

[2] = tested on: capillary circulation of the skin; experiment: Laser Doppler study in five human subjects, 10,000 ppm NO formulation vs controls (Example 7); assay type: in vivo; settings: positive control formulation containing 0.1% methyl nicotinate
Excerpt: This example illustrates delivery of nitric oxide formulations to five human subjects, using procedures and formulations similar to those discussed in Example 5. Each person served as their own control for the testing. A Moor Instruments Laser Doppler was used to determine circulation. […] The formulations used produce positive, almost immediate results when applied to the skin which, in these studies, was manifested by vasodilatation of the cutaneous vascular system.
For each subject, the following creams were applied: a negative control formulation (containing no NO), 0.010 gram of a 10,000 ppm NO formulation, 0.020 gram of a 10,000 ppm NO formulation, and a positive control formulation containing 0.1% methyl nicotinate. The formulations were prepared using procedures similar to those discussed in Example 1.

`COC(=O)c1cccnc1` [methyl nicotinate] was tested, and the “laser Doppler response of positive control” value [1] was “rapid response typical of the vasodilator” and the “vasodilatation (laser Doppler)” value [2] was “vasodilatation was observed”.
